In the NIST ThermoML archive (doi:10.1021/je8006138):

Assays:
[1] = 101 kPa, Liquid; for viscosity: Capillary tube (Ostwald / Ubbelohde) method; for mass density: Pycnometric method
[2] = xn = mol fraction of the nth substance listed; details: 101 kPa, Liquid; for viscosity: Capillary tube (Ostwald / Ubbelohde) method; for mass density: Pycnometric method

C1CCCCC1 [cyclohexane]
[1]
Details	mass density [kg/m3]	viscosity [mPa·s]
293.15 K	778.6	0.984
298.15 K	773.9	0.903
303.15 K	769.2	0.83

C1CCCCC1 [cyclohexane] + CCCCC(CC)COP(=O)(OCC(CC)CCCC)OCC(CC)CCCC
[2], x2 = 0
Details	mass density [kg/m3]	viscosity [mPa·s]
293.15 K	778.6	0.984
298.15 K	773.9	0.903
303.15 K	769.2	0.83

CCCCCC [hexane]
[1]
Details	mass density [kg/m3]	viscosity [mPa·s]
293.15 K	659.9	0.319
298.15 K	655.3	0.304
303.15 K	650.8	0.29

CCCCCC [hexane] + CCCCC(CC)COP(=O)(OCC(CC)CCCC)OCC(CC)CCCC
[2], x2 = 0
Details	mass density [kg/m3]	viscosity [mPa·s]
293.15 K	659.9	0.319
298.15 K	655.3	0.304
303.15 K	650.8	0.29

CCCCC(CC)COP(=O)(OCC(CC)CCCC)OCC(CC)CCCC (stereo not given) [tris(2-ethylhexyl) phosphate]
[1]
Details	mass density [kg/m3]	viscosity [mPa·s]
293.15 K	923.8	14.09
298.15 K	920.1	11.62
303.15 K	916.4	9.708

CCCCC(CC)COP(=O)(OCC(CC)CCCC)OCC(CC)CCCC (stereo not given) [tris(2-ethylhexyl) phosphate] + C1CCCCC1
[2]
Details	mass density, 293.15 K [kg/m3]	mass density, 298.15 K [kg/m3]	mass density, 303.15 K [kg/m3]	viscosity, 293.15 K [mPa·s]	viscosity, 298.15 K [mPa·s]	viscosity, 303.15 K [mPa·s]
x1 = 0.0997	823.7	819.4	815.1	1.709	1.544	1.404
x1 = 0.1995	852.5	848.3	844.2	2.71	2.423	2.176
x1 = 0.2978	871.1	867.1	863.1	3.894	3.415	3.025
x1 = 0.4007	885.8	881.8	877.9	5.246	4.532	3.948
x1 = 0.4965	895.8	892	888	6.629	5.665	4.896
x1 = 0.582	902.8	899	895.1	7.908	6.682	5.732
x1 = 0.6955	910.4	906.6	902.8	9.64	8.09	6.862
x1 = 0.7732	914.6	910.8	907	10.8	9.002	7.619
x1 = 0.8997	920.2	916.5	912.6	12.64	10.5	8.806
x1 = 1	923.8	920.1	916.4	14.09	11.62	9.708

CCCCC(CC)COP(=O)(OCC(CC)CCCC)OCC(CC)CCCC (stereo not given) [tris(2-ethylhexyl) phosphate] + CCCCCC
[2]
Details	mass density, 293.15 K [kg/m3]	mass density, 298.15 K [kg/m3]	mass density, 303.15 K [kg/m3]	viscosity, 293.15 K [mPa·s]	viscosity, 298.15 K [mPa·s]	viscosity, 303.15 K [mPa·s]
x1 = 0.1027	739.4	735.2	730.9	0.638	0.594	0.56
x1 = 0.1999	789.2	785	780.9	1.103	1.019	0.948
x1 = 0.2976	823.2	819	815	1.754	1.608	1.475
x1 = 0.4047	851.5	847.5	843.5	2.753	2.485	2.246
x1 = 0.5005	869.7	865.8	861.9	3.881	3.438	3.053
x1 = 0.5889	883.6	879.6	875.8	5.1	4.479	3.923
x1 = 0.7133	898.9	895.3	891.4	7.34	6.247	5.405
x1 = 0.8032	908.3	904.5	900.8	9.121	7.73	6.583
x1 = 0.8907	916.3	912.6	908.9	11.18	9.353	7.935
x1 = 1	923.8	920.1	916.4	14.09	11.62	9.708
